Assay results from ChEMBL document CHEMBL1201862, “PubChem BioAssay data set” (2004).
Activity calls are given as the source filed them.

What was measured:
[1] = HEp-2 cell cytotoxicity, dose response, cytotoxicity control for RSV inhibitor project, HTS (AID 2410); assay type: functional; details: human respiratory syncytial virus
cells [2] = experiment: cells
[3] = target: DNA dC->dU-editing enzyme APOBEC-3G (Homo sapiens, UniProt Q9HC16); experiment: Dose Response confirmation of small molecule APOBEC3G DNA Deaminase Inhibitors via a fluorescence-based single-stranded DNA deaminase assay. [Related pubchem assays (depositor defined):AID493012, AID493028]; assay type: functional
Insulin-degrading enzyme = Insulin-degrading enzyme (Homo sapiens, UniProt P14735); experiment: Dose Response: Fluorescence polarization-based cell-based high throughput dose response assay for inhibitors of insulin-degrading enzyme (IDE). [Related pubchem assays: 434962 (Primary screen (IDE inhibitors in singlicate)), 449730 (Counterscreen (Cytotoxicity in triplicate)), 435028 (Confirmation (IDE inhibitors in triplicate)), 434984 (Summary …; assay type: functional
[4] = Counterscreen for IDE inhibitors: Luminescence-based cell-based high throughput dose response assay to identify compounds that are cytotoxic to HEK cells. [Related pubchem assays: 434962 (Primary screen (IDE inhibitors in singlicate)), 449730 (Counterscreen (Cytotoxicity in triplicate)), 435028 (Confirmation (IDE inhibitors in triplicate)) …; assay type: functional; details: HEK293
Staphylococcus aureus = experiment: Inhibitors of Bacterial Quorum Sensing Structure Activity Relationship (SAR) Analysis: Dose Response Assay. [Related pubchem assays: 700, 527 ]; assay type: functional, organism-based
Tumor necrosis factor = Tumor necrosis factor (Homo sapiens, UniProt P01375); experiment: TNFa-triggered NF-kB activation inhibitors, SAR follow-up, cell-based, revised (AID 2337); assay type: functional
[5] = target: Nucleotide-binding oligomerization domain-containing protein 2 (Homo sapiens, UniProt Q9HC29); experiment: PubChem AID 2334; assay type: functional
HEK293 [6] = experiment: cells; details: Homo sapiens
[7] = target: T1, Nucleotide-binding oligomerization domain-containing protein 1 (Homo sapiens, UniProt Q9Y239); experiment: NOD1 signaling inhibitors, SAR follow-up, revised (AID 2333); assay type: functional
T1 sequence (Q9Y239 whole entry): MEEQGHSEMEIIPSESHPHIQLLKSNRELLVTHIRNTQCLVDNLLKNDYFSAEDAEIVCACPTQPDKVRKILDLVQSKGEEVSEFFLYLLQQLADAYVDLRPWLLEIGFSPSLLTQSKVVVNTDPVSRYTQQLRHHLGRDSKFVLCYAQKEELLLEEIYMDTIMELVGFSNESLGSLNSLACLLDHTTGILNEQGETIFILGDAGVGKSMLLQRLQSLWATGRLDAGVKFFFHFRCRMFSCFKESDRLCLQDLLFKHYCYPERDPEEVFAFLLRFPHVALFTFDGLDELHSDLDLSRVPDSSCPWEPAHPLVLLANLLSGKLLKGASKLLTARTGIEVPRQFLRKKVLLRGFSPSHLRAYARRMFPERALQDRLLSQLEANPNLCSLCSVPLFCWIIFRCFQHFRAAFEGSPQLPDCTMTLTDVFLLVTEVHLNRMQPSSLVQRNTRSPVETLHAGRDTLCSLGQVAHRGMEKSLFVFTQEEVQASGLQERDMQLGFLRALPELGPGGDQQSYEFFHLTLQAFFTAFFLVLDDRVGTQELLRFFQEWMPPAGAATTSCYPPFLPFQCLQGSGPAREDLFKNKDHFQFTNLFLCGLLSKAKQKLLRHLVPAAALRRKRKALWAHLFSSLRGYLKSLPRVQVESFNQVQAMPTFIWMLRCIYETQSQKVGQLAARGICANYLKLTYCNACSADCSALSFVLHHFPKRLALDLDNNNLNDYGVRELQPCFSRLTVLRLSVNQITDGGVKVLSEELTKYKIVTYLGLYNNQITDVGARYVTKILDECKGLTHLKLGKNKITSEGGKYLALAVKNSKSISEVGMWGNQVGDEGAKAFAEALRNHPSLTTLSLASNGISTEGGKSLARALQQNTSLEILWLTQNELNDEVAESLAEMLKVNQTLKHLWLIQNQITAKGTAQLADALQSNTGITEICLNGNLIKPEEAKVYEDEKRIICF

Albumin = Albumin (Bos taurus, UniProt P02769); experiment: Counterscreen for inhibitors of T-cell receptor (TCR)-CD3 interaction: Fluorescence-based biochemical high throughput dose response assay to identify inhibitors of T-cell receptor (TCR)-CD3 interaction using a TAMRA-labeled BSA probe.; assay type: functional
[8] = inhibitors of SNCA 5'UTR-driven reporter translation, confirmation, H4 neuroglioma cells, luminescence (AID 1988); assay type: functional, cell-based
cells [9] = assay type: functional, cell-based
INS1 = experiment: beta cell apoptosis inhibitors, cytokine rescue, dose response, luminescence, retest (AID 449756); assay type: functional, cell-based; details: Rattus norvegicus;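 further: cell death triggered by IL-1 beta plus TNF-alpha plus IFN-gamma mixture; protective hits raise ATP signal compared with cytokine alone wells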
[10] = luciferase reporter signal reduction – luminescence, H4-C neuroglioblastoma cells, dose response (AID 2458); assay type: functional, cell-based;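 further: H4 neuroglioblastoma cells stably carrying a luciferase reporter gene fusion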
[11] = Luminescence Cell-Based Dose Response HTS to Identify Inhibitors of 5'UTR Stem-Loop Driven Prion Protein mRNA Translation in H4 Neuroglioblastoma Cells. [Related pubchem assays: 1827 (Project Summary), 1813 (Primary HTS)]; assay type: functional
[12] = inhibitors of SNCA 5'UTR-driven translation, confirmation, luminescence, H4 neuroglioblastoma cells, dose confirmation (AID 2454); assay type: functional, cell-based;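 further: H4 neuroglioblastoma cells carrying an alpha-synuclein 5'UTR luciferase reporter; potency for inhibition of the luciferase signal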
[13] = target: Luciferin 4-monooxygenase (Photinus pyralis, UniProt P08659); experiment: Counter Screen for Luciferase-based Assay Positives. [Related pubchem assays: 620, 618, 411 ]
HT-1080 = experiment: cytotoxicity in HT1080 fibrosarcoma cells, cell-based, fluorescence readout (AID 620); assay type: functional; details: Homo sapiens
HEK293 [14] = experiment: inhibitors of LMP1-driven NF-kB reporter, dose response, cell-based, HEK293, luciferase, cherry-pick (AID 588343); assay type: functional; details: Homo sapiens
[15] = target: Induced myeloid leukemia cell differentiation protein Mcl-1 (Homo sapiens, UniProt Q07820); assay type: functional
[16] = inhibitors of firefly luciferase expression or activity, dose response, H4 neuroglioma cells, luminescence (AID 1990); assay type: functional, cell-based

Tumor necrosis factor, sequence (P01375 whole entry, the tested form may be a part): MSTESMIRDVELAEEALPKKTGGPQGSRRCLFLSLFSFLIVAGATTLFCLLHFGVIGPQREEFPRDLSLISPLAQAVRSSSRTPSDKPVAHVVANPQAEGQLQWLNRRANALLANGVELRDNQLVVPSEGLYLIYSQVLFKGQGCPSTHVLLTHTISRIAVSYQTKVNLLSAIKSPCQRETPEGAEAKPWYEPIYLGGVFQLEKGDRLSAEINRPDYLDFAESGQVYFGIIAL
Insulin-degrading enzyme, sequence (P14735 whole entry): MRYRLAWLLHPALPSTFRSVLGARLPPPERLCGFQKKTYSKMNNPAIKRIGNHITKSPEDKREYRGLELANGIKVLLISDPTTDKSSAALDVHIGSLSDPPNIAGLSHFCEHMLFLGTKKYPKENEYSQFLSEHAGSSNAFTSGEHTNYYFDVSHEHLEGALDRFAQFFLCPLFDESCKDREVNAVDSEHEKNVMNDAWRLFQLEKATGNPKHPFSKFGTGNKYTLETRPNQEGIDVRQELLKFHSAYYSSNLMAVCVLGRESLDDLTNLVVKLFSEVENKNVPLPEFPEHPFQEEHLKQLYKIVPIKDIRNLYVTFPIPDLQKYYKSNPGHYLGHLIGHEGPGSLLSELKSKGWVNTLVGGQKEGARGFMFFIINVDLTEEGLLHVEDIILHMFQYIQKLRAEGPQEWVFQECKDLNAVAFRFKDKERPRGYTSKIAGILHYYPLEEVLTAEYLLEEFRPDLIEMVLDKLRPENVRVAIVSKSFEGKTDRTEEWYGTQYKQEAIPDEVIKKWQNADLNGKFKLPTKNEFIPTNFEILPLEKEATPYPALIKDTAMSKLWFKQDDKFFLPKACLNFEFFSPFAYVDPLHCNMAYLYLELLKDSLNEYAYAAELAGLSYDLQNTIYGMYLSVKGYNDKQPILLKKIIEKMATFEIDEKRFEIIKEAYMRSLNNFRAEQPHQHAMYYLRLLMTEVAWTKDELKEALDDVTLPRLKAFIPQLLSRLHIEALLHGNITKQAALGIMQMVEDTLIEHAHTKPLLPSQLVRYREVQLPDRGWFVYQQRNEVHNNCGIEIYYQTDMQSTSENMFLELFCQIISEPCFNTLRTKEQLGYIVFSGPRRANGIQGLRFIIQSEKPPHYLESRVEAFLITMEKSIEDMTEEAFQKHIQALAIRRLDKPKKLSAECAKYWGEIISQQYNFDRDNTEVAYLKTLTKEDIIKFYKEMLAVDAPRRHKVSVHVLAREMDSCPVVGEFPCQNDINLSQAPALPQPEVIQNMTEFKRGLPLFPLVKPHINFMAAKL
Nucleotide-binding oligomerization domain-containing protein 2, sequence (Q9HC29 whole entry, the tested form may be a part): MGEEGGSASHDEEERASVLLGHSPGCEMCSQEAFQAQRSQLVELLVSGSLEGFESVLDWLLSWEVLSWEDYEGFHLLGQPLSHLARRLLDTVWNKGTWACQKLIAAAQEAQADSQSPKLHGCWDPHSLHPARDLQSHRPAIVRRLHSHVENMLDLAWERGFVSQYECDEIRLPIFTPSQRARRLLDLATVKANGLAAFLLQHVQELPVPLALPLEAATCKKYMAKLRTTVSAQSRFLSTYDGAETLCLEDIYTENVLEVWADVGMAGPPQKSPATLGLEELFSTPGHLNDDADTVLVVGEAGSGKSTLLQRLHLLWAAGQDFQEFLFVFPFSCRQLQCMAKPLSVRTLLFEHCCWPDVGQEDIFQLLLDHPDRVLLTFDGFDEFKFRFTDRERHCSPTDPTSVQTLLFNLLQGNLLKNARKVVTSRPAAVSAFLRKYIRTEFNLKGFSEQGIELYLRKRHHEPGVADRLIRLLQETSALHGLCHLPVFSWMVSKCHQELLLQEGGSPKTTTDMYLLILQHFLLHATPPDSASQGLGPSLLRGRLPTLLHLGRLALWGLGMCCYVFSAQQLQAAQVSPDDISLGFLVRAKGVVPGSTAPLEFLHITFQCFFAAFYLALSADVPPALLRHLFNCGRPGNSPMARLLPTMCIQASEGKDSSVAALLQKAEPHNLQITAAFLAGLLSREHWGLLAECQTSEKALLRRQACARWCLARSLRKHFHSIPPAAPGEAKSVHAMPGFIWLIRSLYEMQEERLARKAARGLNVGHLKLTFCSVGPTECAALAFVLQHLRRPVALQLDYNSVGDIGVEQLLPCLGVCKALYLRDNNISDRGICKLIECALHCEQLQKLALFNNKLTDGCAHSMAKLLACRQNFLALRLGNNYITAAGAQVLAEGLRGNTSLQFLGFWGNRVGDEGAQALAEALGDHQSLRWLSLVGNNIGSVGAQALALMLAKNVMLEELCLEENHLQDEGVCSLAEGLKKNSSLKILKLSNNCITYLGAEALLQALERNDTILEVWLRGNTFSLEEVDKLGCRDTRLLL
Albumin, sequence (P02769 whole entry): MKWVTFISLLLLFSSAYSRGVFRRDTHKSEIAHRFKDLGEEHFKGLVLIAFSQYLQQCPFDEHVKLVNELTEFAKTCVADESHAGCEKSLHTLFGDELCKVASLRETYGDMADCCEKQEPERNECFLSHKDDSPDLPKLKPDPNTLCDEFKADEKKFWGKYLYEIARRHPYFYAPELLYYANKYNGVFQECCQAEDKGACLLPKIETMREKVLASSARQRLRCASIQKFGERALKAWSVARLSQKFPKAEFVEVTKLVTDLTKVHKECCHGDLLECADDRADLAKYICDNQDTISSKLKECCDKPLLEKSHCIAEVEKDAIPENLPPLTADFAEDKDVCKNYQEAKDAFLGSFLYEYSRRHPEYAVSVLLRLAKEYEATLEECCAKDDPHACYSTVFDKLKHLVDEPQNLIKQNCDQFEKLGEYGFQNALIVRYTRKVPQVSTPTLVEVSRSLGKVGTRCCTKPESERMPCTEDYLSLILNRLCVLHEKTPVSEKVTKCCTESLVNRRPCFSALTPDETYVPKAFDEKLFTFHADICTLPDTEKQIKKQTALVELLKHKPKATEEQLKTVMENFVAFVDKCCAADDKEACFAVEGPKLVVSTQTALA
Induced myeloid leukemia cell differentiation protein Mcl-1, sequence (Q07820 whole entry): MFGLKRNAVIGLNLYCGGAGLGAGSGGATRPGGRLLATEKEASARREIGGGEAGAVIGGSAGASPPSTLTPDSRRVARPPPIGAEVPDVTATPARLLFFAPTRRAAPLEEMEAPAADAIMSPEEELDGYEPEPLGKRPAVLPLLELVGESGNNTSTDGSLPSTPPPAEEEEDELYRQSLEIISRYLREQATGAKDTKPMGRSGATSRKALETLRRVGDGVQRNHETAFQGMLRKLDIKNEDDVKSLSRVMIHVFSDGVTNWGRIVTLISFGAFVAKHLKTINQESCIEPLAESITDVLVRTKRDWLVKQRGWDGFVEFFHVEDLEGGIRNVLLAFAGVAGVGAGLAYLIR
DNA dC->dU-editing enzyme APOBEC-3G, sequence (Q9HC16 whole entry): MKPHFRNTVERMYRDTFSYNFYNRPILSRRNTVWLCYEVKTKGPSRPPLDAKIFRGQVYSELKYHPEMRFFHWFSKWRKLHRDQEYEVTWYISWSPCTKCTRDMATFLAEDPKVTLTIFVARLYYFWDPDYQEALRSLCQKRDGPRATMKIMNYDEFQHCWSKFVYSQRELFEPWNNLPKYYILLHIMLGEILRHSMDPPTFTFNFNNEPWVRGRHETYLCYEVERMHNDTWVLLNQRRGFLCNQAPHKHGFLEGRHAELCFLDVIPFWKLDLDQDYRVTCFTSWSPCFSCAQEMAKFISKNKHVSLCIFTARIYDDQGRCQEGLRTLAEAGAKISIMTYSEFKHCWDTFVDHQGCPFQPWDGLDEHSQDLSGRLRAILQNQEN
Luciferin 4-monooxygenase, sequence (P08659 whole entry): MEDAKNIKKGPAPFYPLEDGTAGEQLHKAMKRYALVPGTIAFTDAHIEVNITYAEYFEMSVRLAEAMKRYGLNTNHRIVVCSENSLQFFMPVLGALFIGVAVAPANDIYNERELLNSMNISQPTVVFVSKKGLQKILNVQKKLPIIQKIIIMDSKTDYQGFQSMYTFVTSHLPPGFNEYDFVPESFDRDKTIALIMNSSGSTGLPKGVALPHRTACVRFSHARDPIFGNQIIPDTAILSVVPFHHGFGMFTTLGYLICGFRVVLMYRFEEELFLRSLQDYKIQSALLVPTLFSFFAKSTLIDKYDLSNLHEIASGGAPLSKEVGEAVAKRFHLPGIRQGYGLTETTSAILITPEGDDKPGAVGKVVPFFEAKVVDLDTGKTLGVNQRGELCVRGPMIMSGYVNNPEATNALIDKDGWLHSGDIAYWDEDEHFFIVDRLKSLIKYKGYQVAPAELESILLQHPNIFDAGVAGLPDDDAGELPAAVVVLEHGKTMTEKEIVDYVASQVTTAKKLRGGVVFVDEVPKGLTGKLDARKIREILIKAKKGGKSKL

COCc1cc(C)nc(SCC(=O)Nc2ccccc2N2CCOCC2)c1C#N
CC50 [1]: > 50 µM (active)
IC50 (cells [2]): 9.24 µM (active)

c1ccc(-c2nn3c(Cn4cnc5ccccc54)nnc3s2)cc1
CC50 [1]: 42.6 µM (active)
IC50 (cells [2]): 5.46 µM (active)
IC50 [3]: > 100 µM (inactive)

Cc1cccc(Nc2nc(N)c(C#N)c(CC#N)c2C#N)c1
IC50 (Insulin-degrading enzyme): > 56 µM (not active)
IC50 [4]: 29.6 µM (not active)

COc1ccc(NC(=O)C(c2cc3c(cc2[N+](=O)[O-])OCO3)N2CC(C)CC(C)C2)cc1 (stereo not given)
IC50 (Staphylococcus aureus): 1.31 µM (active)

O=C(Nc1nc2ccccc2n1Cc1ccc(Cl)cc1)c1ccccc1
IC50 (Tumor necrosis factor): > 20 µM (inactive)
IC50 [5]: > 20 µM (inactive)
IC50 (HEK293 [6]): > 20 µM (inactive)
IC50 [7]: > 20 µM (inactive)

Cc1ccc2cccc(N=Cc3c(C)[nH]n(-c4ccccc4)c3=O)c2n1
IC50 (Tumor necrosis factor): > 20 µM (inactive)
IC50 [5]: > 20 µM (inactive)
IC50 (HEK293 [6]): > 20 µM (inactive)
IC50 [7]: > 20 µM (inactive)

CC(=O)N(C(C)=O)c1nc(-c2ccccc2)cn1/N=C/c1ccccc1
IC50 (Insulin-degrading enzyme): > 55.9 µM (not active)
IC50 [4]: 20 µM (not active)

C/C(=N\NC(=O)c1c(C)nc2ccccn12)c1ccc(O)cc1O
IC50 (Albumin): > 94.1 µM (inactive)
EC50 [8]: < 0.1 µM (active)
EC50 (cells [9]): 0.901 µM (active)
AC50 (INS1): 0.586 µM (active)
EC50 [10]: 0.739 µM (active)
EC50 [11]: < 0.1 µM (active)
EC50 [12]: > 12 µM (inconclusive)

C/C(=N/NC(=O)c1cc(C2CC2)[nH]n1)c1cccs1
EC50 [13]: > 100 µM (not active)
EC50 (HT-1080): > 50 µM (not active)
AC50 (HEK293 [14]): 1.63 µM (active)

CCO/C(O)=C1\C(C)=NC2=C(C(=O)CC(C)(C)C2)C1c1ccc2c(c1)CCCN2C (stereo not given)
IC50 [15]: 1.65 µM (not active)

CC(=O)O[C@@H]1/C=C/[C@](C)(O)C[C@@H](C)C/C=C/[C@H]2[C@@H]3O[C@]3(C)[C@@H](C)[C@H]3[C@H](Cc4ccccc4)NC(=O)[C@@]312 [EPOXYCYTOCHALASIN H]
EC50 [8]: < 0.1 µM (active)
EC50 (cells [9]): 0.608 µM (active)
EC50 [16]: < 0.1 µM (active)
EC50 [10]: 0.431 µM (active)
EC50 [11]: < 0.1 µM (active)
EC50 [12]: 0.403 µM (active)
